# Patent US4371535A, “Method of and composition for delivering 5-fluorouracil to tumors” (priority 1976, dated 1983)
# Read-outs that look alike come from different tables or passages of the source.
# What was measured:
# [1] = in vivo; type: in vivo; conditions: mouse, in vivo, oral, mice
# Protocol: (§1) Mice (ddy strain, male, 5 weeks old) are reared for one week, then fasted for 15 hours and thereafter orally given the compound forcibly. After the administration, the mice are placed into plastic cages, with free access to a solid diet and water, and checked for mortality 3 days, one week, 2 weeks and 3 weeks later. LD50 is calculated according to the method of Litchfield and Wilcoxon.
# [2] = system: Mice (ddy strain); assay: in vivo; type: in vivo; conditions: for LD50: oral, mice
# Protocol: as §1
# [3] = system: Ehrlich carcinoma; assay: Anti-tumor activity on Ehrlich carcinoma, subcutaneous transplant; type: in vivo; conditions: mice, oral once daily 7 days; for Inhibition percentage: 121.5 mg/kg (bis) or 90 mg/kg (mono), tumor weight on 10th day; for Weight of tumor: 121.5 mg/kg (bis) or 90 mg/kg (mono, equimolar), 10th day, control 0.61 ± 0.08 g
# Protocol: (§2) As transplantable tumors, Ehrlich carcinoma and sarcoma 180 are used for mice and Yoshida sarcoma and AH 130 for rats. […] The effect of the compound is determined in terms of the weight of tumor on the 10th day from the transplantation.
# [4] = system: sarcoma 180; assay: Anti-tumor activity on sarcoma 180, subcutaneous transplant; type: in vivo; conditions: mice, oral once daily 7 days, 121.5 mg/kg (bis) or 90 mg/kg (mono); for Weight of tumor: 10th day, control 1.00 ± 0.09 g; for Inhibition percentage: tumor weight on 10th day
# Protocol: as §2
# [5] = system: Yoshida sarcoma; assay: Anti-tumor activity on Yoshida sarcoma, subcutaneous transplant; type: in vivo; conditions: rats, oral once daily 7 days, 121.5 mg/kg (bis) or 90 mg/kg (mono); for Weight of tumor: 10th day, control 4.48 ± 0.60 g; for Inhibition percentage: tumor weight on 10th day
# Protocol: as §2
# [6] = system: AH-130; assay: Anti-tumor activity on AH-130, subcutaneous transplant; type: in vivo; conditions: rats, oral once daily 7 days, 121.5 mg/kg (bis) or 90 mg/kg (mono); for Weight of tumor: 10th day, control 2.10 ± 0.50 g; for Inhibition percentage: tumor weight on 10th day
# Protocol: as §2
# [7] = Solubility; type: physicochemical
# [8] = system: tumor; assay: Anti-tumor activity, overall comparison with 1-(2-tetrahydrofuryl)-5-fluorouracil; type: in vivo; conditions: versus 1-(2-tetrahydrofuryl)-5-fluorouracil
# Protocol: as §2
# [9] = Conversion in the body into 5-fluorouracil; conditions: in vivo
# Protocol: (§3) Cells of the tumor, AH-130, 5×10^6 in number, are subcutaneously transplanted in the armpit region of test animals (3 in each group). […] The concentration of 5-fluorouracil in the blood and in the cancer cellular tissue of the animals are measured 1, 2, 4, 8 and 12 hours after the administration.
# [10] = system: cellular immunity; conditions: mouse, in vivo
# Protocol: A predetermined amount of 7 wt. % ethanol solution of picryl chloride is given to the shaved abdomens of mice for sensitization. […] On the seventh day after the sensitization, a 1 wt. % olive oil solution of picryl chloride is applied to the inside of both ears of each animal to give rise to a delayed cutireaction. The thickness of the ear resulting from the reaction in 24 hours is measured to calculate the percentage of inhibition on immunity.
# [11] = rat, in vivo; for Concentration of 5-fluorouracil in blood: po
# Protocol: as §3
# [12] = rat, in vivo; for Concentration of 5-fluorouracil in cancer cellular tissue: po
# Protocol: as §3
# [13] = Toxicity and side effects, overall statement; conditions: versus 1-(2-tetrahydrofuryl)-5-fluorouracil
# [14] = system: immunity; conditions: versus 5-fluorouracil; Giller et al., British Pat. No. 1,168,391; cited from earlier work
# [15] = cited from earlier work
# [16] = system: transplanted tumors; conditions: Heidelberger et al.; cited from earlier work
Structure (SMILES),Inhibition percentage [3] [%],Weight of tumor [3] [g],Weight of tumor [4] [g],Inhibition percentage [4] [%],Weight of tumor [5] [g],Inhibition percentage [5] [%],Weight of tumor [6] [g],Inhibition percentage [6] [%],Concentration of 5-fluorouracil in blood ([11]; 60 min) [ng/mL],Concentration of 5-fluorouracil in blood ([11]; 120 min) [ng/mL],Concentration of 5-fluorouracil in blood ([11]; 240 min) [ng/mL],Concentration of 5-fluorouracil in blood ([11]; 480 min) [ng/mL],Concentration of 5-fluorouracil in blood ([11]; 720 min) [ng/mL],Concentration of 5-fluorouracil in cancer cellular tissue ([12]; 60 min) [ng/mL],Concentration of 5-fluorouracil in cancer cellular tissue ([12]; 120 min) [ng/mL],Concentration of 5-fluorouracil in cancer cellular tissue ([12]; 240 min) [ng/mL],Concentration of 5-fluorouracil in cancer cellular tissue ([12]; 480 min) [ng/mL],Concentration of 5-fluorouracil in cancer cellular tissue ([12]; 720 min) [ng/mL],also measured
"O=c1c(F)cn(C2CCCO2)c(=O)n1C1CCCO1 (centres unmarked) [1,3-bis(2-tetrahydrofuryl)-5-fluorouracil]",57,0.26 ± 0.06,0.31 ± 0.10,69,2.59 ± 0.33,42,0.92 ± 0.35,56,5880,5080,2650,570,200,8930,7530,7530,5400,2130,"LD50 at 504 h ([1]; 3 weeks): 2560 mg/kg; LD50 at 72 h ([1]; 3 days): 2980 mg/kg; LD50 ([2]; 1 week, 10080 min): 2,780 mg/kg; LD50 ([2]; 2 weeks, 20160 min): 2,664 mg/kg; Acute toxicity relative to the conventional composition ([2]; versus composition containing 1-(2-tetrahydrofuryl)-5-fluorouracil): about one-third; Solubility ([7]; methanol, ethanol, acetone, ether, chloroform, glacial acetic acid, dimethyl sulfoxide): soluble; Solubility ([7]; water, aqueous caustic soda solution, ethyl acetate, hydrochloric acid): sparingly soluble; Anti-tumor activity, in words [8]: more excellent anti-tumor activity; Conversion in the body (prodrug) [9]: converted in the body into 5-fluorouracil; Inhibitory effect on the cellular immunity relative to the conventional composition [10]: lower inhibitory effect on the cellular immunity; Concentration of 5-fluorouracil in the blood relative to the conventional composition [11]: 10-20 times; Concentration of 5-fluorouracil in cancer cellular tissue relative to the conventional composition [12]: 10-20 times; Concentration of 5-fluorouracil maintained in cancer cellular tissue, in words [12]: much higher; Side effects, in words [13]: less side effects; Toxicity, in words [13]: lower toxicity"
"O=c1[nH]c(=O)n(C2CCCO2)cc1F (centres unmarked) [1-(2-tetrahydrofuryl)-5-fluorouracil, reference compound]",39,0.37 ± 0.14,0.36 ± 0.11,64,3.48 ± 0.68,22,1.11 ± 0.17,47,200,300,200,80,≤ 40,≤ 200,350,350,340,≤ 200,"Inhibition on immunity, in words [14]: less inhibitory on immunity than 5-fluorouracil; Toxicity, in words ([15]; versus 5-fluorouracil, Giller et al., British Pat. No. 1,168,391): lower in toxicity"
O=c1[nH]cc(F)c(=O)[nH]1 [5-fluorouracil],,,,,,,,,,,,,,,,,,,"Anti-tumor activity, in words [16]: inhibit transplanted tumors; Toxicity, in words ([15]; background statement): highly toxic; Side effects, in words ([15]; in vivo): reduced immunity, gastro-intestinal ulceration, leucopenia and various other side effects"
